Here are results for one molecule from patent publication US20100206318A1, “FILTER FOR A TOBACCO PRODUCT” (BIOHIT OYJ, priority 2007, published 2010).

This assay can be described thus: acetaldehyde in saliva of testees during smoking through cigarette holder with filter (headspace gas chromatography). The class given is in vivo, human. The following applies: FIG. 1. The text has this: The entire filter of Marlboro Red was removed or, in some tests, 2-3 mm of the original filter was left in the cigarette.
In the tests, ready commercial cigarette holders/mouthpieces of Denicotea, www.denicotea.de were used. In the cigarette holders/mouthpieces, plastic cylinder-shaped “containers” were used, the filtering material being packed in the containers. The original content (intended for the removal of nicotine) of the containers was removed and replaced with the material that was used in the study. The outer dimensions of the container were: diameter 8 mm and length 35 mm.
Cellulose wadding (c. 100 mg), filter paper (Whattman), Commercial filters: Smart (the importer: Altadia Finland Oy) and Ventti (Philip Morris Finland Oy),
Cysteine was dissolved in distilled water, 30-180 mg of L-Cysteine/1 ml. The manufacturer: Fluka, 30089.
The filter material that had been packed in plastic cylinders was moistened with a water-cysteine solution (50-250 μl), and the filter container thus made was placed in the Denicotea cigarette holder. After this, the testees smoked the cigarettes that had been placed in the mouthpieces. During smoking, saliva samples were collected from those participating in the tests and the acetaldehyde in the saliva was analyzed by gas chromatography, Perkin-Elmer, HS40, headspace Gas Chromatograph.

As for `N[C@@H](CS)C(=O)O` [cysteine, L-Cysteine], the “filterability, dependence on amount” value is “dependent on the amount of cysteine”.
